Measured values as given in PMC5780498, “Discovery of novel bacterial topoisomerase I inhibitors by use of in silico docking and in vitro assays” (Scientific Reports, 2018).
Values after ≈ are worked out from the molar mass of the structure shown. Where two headings read alike, the source gives them in different places.

Tested on: M. smegmatis clone overexpressing recombinant MtbTopI (M+ strain)
Assay: microbe, parasite or virus in culture
Assay type: cell-based, Mycobacterium smegmatis
Conditions: Mycolicibacterium smegmatis
[1] = 48 h, read-out: M+ Growth Inhibition (MIC)
[2] = read-out: M+ Growth Inhibition with TZ (MIC)

SMILES | MIC [1] [µM] | MIC [2] [µM]
COc1ccc2c(c1)NC1(CCN(C(=O)Cc3c[nH]c4ccccc34)CC1)NS2(=O)=O [Compound 3] | > 250 | 62.5 (≈ 27.5 µg/mL)
Cc1ccc(CN2C[C@]34C=C[C@H](O3)C(C(=O)N3CCn5cccc5C3)C4C2=O)cc1C (stereo partly shown) [Compound 7] | > 500 | > 500
Cc1ccc2oc(C(=O)N3CCC(O)(c4cccc(C(F)(F)F)c4)CC3)c(C)c2c1 [Compound 10] | > 500 | 46.9 (≈ 19.6 µg/mL)
Cc1ccc2c(C)c(C(=O)N3CCC4(CC(=O)c5ccccc5O4)C3)oc2c1 (stereo not shown) [Compound 12] | > 500 | > 500
Cc1ccc2[nH]c(C3CCN(C(=O)c4oc5ccc(C)cc5c4C)CC3)nc2c1 [Compound 9] | > 500 | 31.3 (≈ 12.1 µg/mL)
Cc1c(C(=O)N2CCCCC2CCc2ccc(O)cc2)oc2c(F)cccc12 (stereo not shown) [Compound 11] | > 500 | 125 (≈ 47.7 µg/mL)
Cc1cc2oc(C(=O)N3CCC(c4nc5ccccc5[nH]4)CC3)c(C)c2cc1C [Compound 8] | > 500 | 31.3 (≈ 12.1 µg/mL)
Cc1c(C(=O)N2CCC(c3nnc(-c4nccc5ccccc45)o3)CC2)oc2ccccc12 [Compound 2] | > 250 | 62.5 (≈ 27.4 µg/mL)
